Data as given in patent US3939043A, “Antibiotics designated XK-88 series and process for production thereof” (Abbott Laboratories, priority 1973, dated 1976).
Values after ≈ are worked out from the molar mass of the structure shown. Like-named read-outs stand apart in the source and are kept apart here.

Assays:
[1] = tested on: Escherichia coli KY 8327; assay: In vitro antibacterial spectrum by agar dilution method (pH 8.0); type: cell-based; settings: KY8327, Escherichia coli KY 8327 (resistant to Kanamycin, Gentamicin, Nebramycin and Tobramycin), read-out: Minimum Inhibitory Concentration (M.I.C.)
[2] = tested on: Escherichia coli; assay: Antibacterial activity against resistant bacteria (summary of Table 4); type: cell-based; settings: Escherichia coli normally resistant to various known antibiotics
Description: (§1) The in vitro antibacterial spectra of the XK-88 antibiotics by agar dilution method (pH 8.0) is illustrated in the following Table 4: […]

[3] = tested on: Staphylococcus aureus; assay: as above; type: cell-based; settings: Staphylococcus aureus normally resistant to various known antibiotics
Description: as §1

[4] = tested on: Klebsiella pneumoniae ATCC 10031; assay: In vitro antibacterial spectrum by agar dilution method (pH 8.0); type: cell-based; settings: ATCC10031, read-out: Minimum Inhibitory Concentration (M.I.C.)
[5] = tested on: Staphylococcus aureus KY 8942; assay: as above; type: cell-based
[6] = tested on: Staphylococcus aureus KY 8950; assay: as above; type: cell-based; settings: KY8950, Staphylococcus aureus KY 8950 (resistant to Streptomycin, Tetracycline, Penicillin and sulfonamide), read-out: Minimum Inhibitory Concentration (M.I.C.)
[7] = tested on: Gram-positive and Gram-negative bacteria; assay: Antibacterial activity (summary of Table 4); type: cell-based; settings: versus the said known antibiotics; from Table 4
Description: as §1

[8] = tested on: Bacillus cereus ATCC 9634; assay: In vitro antibacterial spectrum by agar dilution method (pH 8.0); type: cell-based; settings: ATCC9634, read-out: Minimum Inhibitory Concentration (M.I.C.)
[9] = tested on: Escherichia coli ATCC 26; assay: as above; type: cell-based
[10] = tested on: Staphylococcus aureus KY 8953; assay: as above; type: cell-based
[11] = tested on: Proteus vulgaris ATCC 6897; assay: as above; type: cell-based
[12] = tested on: Staphylococcus aureus KY 8957; assay: as above; type: cell-based; settings: KY8957, Staphylococcus aureus KY 8957 (resistant to Chloramphenicol, Streptomycin, Kanamycin, Paromomycin, Nebramycin, Tobramycin and Tetracycline), read-out: Minimum Inhibitory Concentration (M.I.C.)
[13] = tested on: Pseudomonas aeruginosa BMH No. 1; assay: as above; type: cell-based
[14] = tested on: Escherichia coli KY 8334; assay: as above; type: cell-based; settings: KY8334, Escherichia coli KY 8334 (resistant to Kanamycin and Tobramycin), read-out: Minimum Inhibitory Concentration (M.I.C.)
[15] = tested on: Escherichia coli KY 8310; assay: as above; type: cell-based; settings: KY8310, Escherichia coli KY 8310 (resistant to Chloramphenicol, Streptomycin, Kanamycin, Gentamicin, Paromomycin, Nebramycin, Tobramycin, Spectinomycin and Tetracycline), read-out: Minimum Inhibitory Concentration (M.I.C.)
Description: (§2) The in vitro antibacterial spectra of the XK-88 antibiotics by agar dilution method (pH 8.0) is illustrated in the following Table 4:
(§3) (Minimum Inhibitory Concentration (μg/ml)
(§4) by agar dilution method (pH 8.0)

[16] = tested on: Shigella sonnei ATCC 9290; assay: as above; type: cell-based; settings: ATCC9290, read-out: Minimum Inhibitory Concentration (M.I.C.)
Description: as §2, §3, §4

[17] = tested on: Escherichia coli KY 8314; assay: as above; type: cell-based; settings: KY8314, Escherichia coli KY 8314 (resistant to Streptomycin), read-out: Minimum Inhibitory Concentration (M.I.C.)
Description: as §2, §3, §4

[18] = tested on: Escherichia coli KY 8331; assay: as above; type: cell-based; settings: KY8331, Escherichia coli KY 8331 (resistant to Kanamycin, Ribostamycin, Neomycin, Paromomycin, Lividomycin and Nebramycin), read-out: Minimum Inhibitory Concentration (M.I.C.)
Description: as §2, §3, §4

[19] = tested on: Streptococcus faecalis ATCC 10541; assay: as above; type: cell-based; settings: Enterococcus faecalis
[20] = tested on: Staphylococcus aureus ATCC 6538P; assay: as above; type: cell-based; settings: ATCC6538P, read-out: Minimum Inhibitory Concentration (M.I.C.)
[21] = tested on: Salmonella typhosa ATCC 9992; assay: as above; type: cell-based; settings: Salmonella enterica, pH 8, read-out: Minimum Inhibitory Concentration (M.I.C.)
[22] = tested on: Escherichia coli KY 8348; assay: as above; type: cell-based; settings: KY8348, Escherichia coli KY 8348 (resistant to Streptomycin and Gentamicin), read-out: Minimum Inhibitory Concentration (M.I.C.)
[23] = tested on: Staphylococcus aureus KY 8956; assay: as above; type: cell-based; settings: KY8956, Staphylococcus aureus KY 8956 (resistant to Streptomycin, Paromomycin, Tetracycline, Kanamycin, Nebramycin, Tobramycin and Erythromycin), read-out: Minimum Inhibitory Concentration (M.I.C.)
[24] = tested on: Bacillus subtilis No. 10703; assay: as above; type: cell-based
[25] = tested on: Bacillus cereus var. mycoides ATCC 9463; assay: microbe, parasite or virus in culture; type: cell-based; settings: ATCC9463, pH 8, read-out: Minimum Inhibitory Concentration (M.I.C.)
[26] = Solubility; type: physicochemical; settings: for solubility in organic solvents: acetone, ethyl acetate, ethyl ether, chloroform, etc.
[27] = Staphylococcus aureus, KY8953, pH 8, read-out: Minimum Inhibitory Concentration (M.I.C.)
[28] = ATCC10541, pH 8, read-out: Minimum Inhibitory Concentration (M.I.C.)
[29] = KY8942, Staphylococcus aureus KY 8942 (resistant to Kanamycin, Paromomycin, Streptomycin, Gentamicin and Nebramycin), agar dilution, pH 8.0, read-out: Minimum Inhibitory Concentration (M.I.C.)
[30] = ATCC26, Escherichia coli ATCC 26, agar dilution, pH 8.0, read-out: Minimum Inhibitory Concentration (M.I.C.)
[31] = KY8953, Staphylococcus aureus KY 8953 (resistant to Streptomycin, Kanamycin, Paromycin, Neomycin, Tetracycline, Erythromycin), agar dilution, pH 8.0, read-out: Minimum Inhibitory Concentration (M.I.C.)
[32] = ATCC6897, Proteus vulgaris ATCC 6897, agar dilution, pH 8.0, read-out: Minimum Inhibitory Concentration (M.I.C.)
[33] = BMHNO.1, Pseudomonas aeruginosa BMH No. 1, agar dilution, pH 8.0, read-out: Minimum Inhibitory Concentration (M.I.C.)
[34] = Bacillus subtilis No. 10703, agar dilution, pH 8.0, read-out: Minimum Inhibitory Concentration (M.I.C.)

SMILES	MIC [1] [mg/L]	antibacterial activity [2]	antibacterial activity [3]	MIC [4] [mg/L]	MIC [6] [mg/L]	cross resistance with known antibiotics [7]	MIC [8] [mg/L]	MIC [12] [mg/L]	MIC [14] [mg/L]	MIC [15] [mg/L]	MIC [16] [mg/L]	MIC [17] [mg/L]	MIC [18] [mg/L]	MIC [20] [mg/L]	MIC [21] [mg/L]	MIC [22] [mg/L]	MIC [23] [mg/L]	MIC [25] [mg/L]	solubility in organic solvents [26]	solubility in methanol and ethanol [26]	also measured
NC1CC(N)C(OC2OC(CO)C(O)C(O)C2N)C(O)C1OC1OCC(O)C(O)C1N (stereo not shown) [XK-88-1]	13.1 (≈ 28.8 µM)	strong antibacterial activity	strong antibacterial activity	13.1 (≈ 28.8 µM)	13.1 (≈ 28.8 µM)	complete cross resistance does not always occur	6.6 (≈ 14.5 µM)	104 (≈ 229 µM)	1.65 (≈ 3.63 µM)	> 416	52.1 (≈ 115 µM)	52.1 (≈ 115 µM)	> 416	6.6 (≈ 14.5 µM)	26.1 (≈ 57.4 µM)	13.5 (≈ 29.7 µM)	208 (≈ 459 µM)	3.3 (≈ 7.26 µM)			MIC ([5]; Staphylococcus aureus, KY8942, pH 8, read-out: Minimum Inhibitory Concentration (M.I.C.)): 52.1 mg/L (≈ 115 µM); MIC ([9]; Escherichia coli, ATCC26, pH 8, read-out: Minimum Inhibitory Concentration (M.I.C.)): 26.1 mg/L (≈ 57.4 µM); MIC [10, 27]: > 416 mg/L; MIC ([11]; Proteus vulgaris, ATCC6897, pH 8, read-out: Minimum Inhibitory Concentration (M.I.C.)): 416 mg/L (≈ 916 µM); MIC ([13]; Pseudomonas aeruginosa, BMHNO.1, pH 8, read-out: Minimum Inhibitory Concentration (M.I.C.)): > 416 mg/L; MIC [19, 28]: > 416 mg/L; MIC ([24]; Bacillus subtilis, NO.10703, pH 8, read-out: Minimum Inhibitory Concentration (M.I.C.)): 52.1 mg/L (≈ 115 µM)
NCC1CC(O)C(N)C(OC2C(N)CC(N)C(O)C2O)O1 (stereo not shown) [XK-88-2]	0.18 (≈ 0.588 µM)	strong antibacterial activity	strong antibacterial activity	0.18 (≈ 0.588 µM)	0.35 (≈ 1.14 µM)	complete cross resistance does not always occur	2.7 (≈ 8.81 µM)	0.09 (≈ 0.294 µM)	5.3 (≈ 17.3 µM)	> 83.3	1.4 (≈ 4.57 µM)	1.4 (≈ 4.57 µM)	41.7 (≈ 136 µM)	0.18 (≈ 0.588 µM)	0.7 (≈ 2.28 µM)	0.18 (≈ 0.588 µM)	0.09 (≈ 0.294 µM)	0.7 (≈ 2.28 µM)			MIC [5, 29]: 1.4 mg/L (≈ 4.57 µM); MIC [9, 30]: 0.35 mg/L (≈ 1.14 µM); MIC [10, 31]: 0.35 mg/L (≈ 1.14 µM); MIC [11, 32]: 1.4 mg/L (≈ 4.57 µM); MIC [13, 33]: 10.5 mg/L (≈ 34.3 µM); MIC [19, 28]: > 83.3 mg/L; MIC [24, 34]: 0.35 mg/L (≈ 1.14 µM)
NCC1OC(OC2C(N)CC(N)C(OC3OCC(O)C(O)C3N)C2O)C(N)C(O)C1O (stereo not shown) [XK-88-3]	0.05 (≈ 0.11 µM)	strong antibacterial activity	strong antibacterial activity	0.05 (≈ 0.11 µM)	0.35 (≈ 0.772 µM)	complete cross resistance does not always occur	2.7 (≈ 5.95 µM)	5.3 (≈ 11.7 µM)	5.3 (≈ 11.7 µM)	83.3 (≈ 184 µM)	0.35 (≈ 0.772 µM)	0.35 (≈ 0.772 µM)	41.7 (≈ 92 µM)	0.18 (≈ 0.397 µM)	0.18 (≈ 0.397 µM)	0.09 (≈ 0.198 µM)	5.3 (≈ 11.7 µM)	2.7 (≈ 5.95 µM)			MIC [5, 29]: 1.4 mg/L (≈ 3.09 µM); MIC [9, 30]: 0.18 mg/L (≈ 0.397 µM); MIC [10, 27]: > 83.3 mg/L; MIC [11, 32]: 1.4 mg/L (≈ 3.09 µM); MIC [13, 33]: > 416 mg/L; MIC [19, 28]: > 83.3 mg/L; MIC [24, 34]: 2.7 mg/L (≈ 5.95 µM)
COC1COC(OC2C(N)CC(N)C(OC3OC(CN)CC(O)C3N)C2O)C(N)C1N (stereo not shown) [XK-88-5]	0.04 (≈ 0.0888 µM)	strong antibacterial activity	strong antibacterial activity	< 0.05	0.17 (≈ 0.377 µM)	complete cross resistance does not always occur	1.31 (≈ 2.91 µM)	0.04 (≈ 0.0888 µM)	0.66 (≈ 1.46 µM)	> 41.6	0.14 (≈ 0.311 µM)	0.33 (≈ 0.732 µM)	20.8 (≈ 46.2 µM)	0.07 (≈ 0.155 µM)	0.09 (≈ 0.2 µM)	2.7 (≈ 5.99 µM)	< 0.02	0.66 (≈ 1.46 µM)			MIC [5, 29]: 0.66 mg/L (≈ 1.46 µM); MIC [9, 30]: 0.08 mg/L (≈ 0.178 µM); MIC [10, 31]: 0.17 mg/L (≈ 0.377 µM); MIC [11, 32]: 0.53 mg/L (≈ 1.18 µM); MIC [13, 33]: 8.3 mg/L (≈ 18.4 µM); MIC ([19]; ATCC10541, Streptococcus faecalis ATCC 10541, agar dilution, pH 8.0, read-out: Minimum Inhibitory Concentration (M.I.C.)): 10.5 mg/L (≈ 23.3 µM); MIC [24, 34]: 0.04 mg/L (≈ 0.0888 µM)
NC1CC(N)C(OC2OC(CO)C(O)C(O)C2N)C(O)C1OC1OCC(O)C(O)C1N (stereo not shown) [sulfate of XK-88-1]																			insoluble	poorly soluble	solubility in water [26]: very soluble
NCC1CC(O)C(N)C(OC2C(N)CC(N)C(O)C2O)O1 (stereo not shown) [sulfate of XK-88-2]																			insoluble	poorly soluble	solubility in water [26]: very soluble
NCC1OC(OC2C(N)CC(N)C(OC3OCC(O)C(O)C3N)C2O)C(N)C(O)C1O (stereo not shown) [sulfate of XK-88-3]																			insoluble	poorly soluble	solubility in water [26]: very soluble
COC1COC(OC2C(N)CC(N)C(OC3OC(CN)CC(O)C3N)C2O)C(N)C1N (stereo not shown) [sulfate of XK-88-5]																			insoluble	poorly soluble	solubility in water [26]: very soluble
